Read-outs that look alike come from different tables or passages of the source.
Experiments:
[1] = target: T1, Human recombinant cathepsin K (Homo sapiens, UniProt P43235); test: Cathepsin K assay; assay type: biochemical; details: for remaining activity at 10 µM: replicates = 2, n.i. = no inhibition observed at 10 μM, read-out: remaining activity (%) at 10 μM, CatK; for Ki: SD lower than 15%, read-out: pKi CatK (converted)
T1 sequence (P43235 115-329): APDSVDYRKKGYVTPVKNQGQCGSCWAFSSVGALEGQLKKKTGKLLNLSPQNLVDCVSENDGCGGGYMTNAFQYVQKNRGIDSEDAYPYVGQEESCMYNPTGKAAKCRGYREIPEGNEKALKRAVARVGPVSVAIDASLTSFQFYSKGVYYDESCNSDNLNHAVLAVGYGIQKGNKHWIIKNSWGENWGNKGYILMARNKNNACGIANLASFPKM
Procedure: Human recombinant cathepsin K was assayed on a FLUOSTAR Optima plate reader at 25 °C with an excitation wavelength of 360 nm and an emission wavelength of 440 nm on a 96 well plate. The enzyme solution (23 μg/mL in 50 mM sodium acetate pH 5.5, 50 mM NaCl, 0.5 mM EDTA, 5 mM DTT) was diluted 1:100 with assay buffer (100 mM sodium citrate buffer pH 5.0, 100 mM NaCl, 1 mM EDTA, 0.01% CHAPS) containing 5 mM DTT and was then incubated at 37 °C for 30 min for activation. A 1.5 mM stock solution of the substrate Z-Leu-Arg-AMC was prepared in DMSO. […] The assay was performed with a final concentration of cathepsin K of 1.73 ng/mL. Stock solutions of inhibitors were prepared in DMSO. The final DMSO concentration was 2% (4 μL). Into a well containing 194.5 μL assay buffer, 0.8 μL of the fluorogenic substrate, DMSO and inhibitor solution (3.2 μL) were added. Upon addition of cathepsin K (1.5 μL), the measurement was started and followed for 20 min.

[2] = target: cathepsin L (CatL) (Homo sapiens, UniProt P07711); test: Cathepsin L enzyme inhibition; assay type: biochemical; details: for Ki: SD lower than 15%, read-out: pKi CatL (converted)
[3] = target: cathepsin S (CatS) (Homo sapiens, UniProt P25774); test: Cathepsin S enzyme inhibition; assay type: biochemical; details: for Ki: SD lower than 15%, read-out: pKi CatS (converted)
Procedure: (§1) Enzyme inhibition studies for Cz and LmCPB were performed as previously described for Cz. The experimental procedures are described in the Supporting Information (see chapter S3). Cathepsins B, L, S were assayed as reported.

[4] = target: Leishmania mexicana CPB (LmCPB) (Leishmania mexicana, UniProt P36400); test: LmCPB enzyme inhibition; assay type: biochemical; details: for difference in pKi, LmCPB: sign not given, direction by cell colour or wording
Procedure: as §1

[5] = target: recombinant cruzain (Cz) (Trypanosoma cruzi, UniProt P25779); test: Cruzain enzyme inhibition; assay type: biochemical; details: for difference in pKi, Cz: relative to compound 9, sign not given, direction by cell colour or wording
Procedure: as §1

[6] = system: T. cruzi Tulahuen LacZ strain, intracellular amastigote forms; test: In vitro trypanocidal activity on intracellular amastigote forms (Tulahuen strain); assay type: cell-based, Trypanosoma cruzi; details: for EC50: Trypanosoma cruzi, TULAHUEN; for SI (selective index): from EC50 (T. cruzi) and CC50 (LLCMK2)
Procedure: Cells were evaluated in 96-well plates. Cells from the LLCMK2 lineage were plated at a concentration of 5x10^4 cells mL^-1. Trypomastigote forms of the Tulahuen LacZ strain were added at a concentration of 5×10^5 parasites mL^-1 and placed in the incubator at 37°C with 5% CO2 for 24 h. After the incubation period, the trypomastigote forms present were removed by successive washes with PBS, remaining only as intracellular amastigote forms. Compounds were added at different concentrations (1.95 μM to 250 μM serial dilutions) and incubated for 72 h. At the end of this period, the substrate CPRG (chlorophenol red β-D-galactopyranoside, 400 μM in 0.3% Triton X-100, pH 7.4) was added. […] Benznidazole was used as a positive control in the same concentrations as the substances, and DMSO as a negative control. Compounds were solubilized in DMSO. The selectivity index (SI) was calculated using the formula: […]. All statistical analyses were done with the program GraphPad Prism v.5.

[7] = Mammalian cytotoxicity assay (MTT); assay type: cell-based; details: rhesus monkey, LLCMK2 cells;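 also: Read-out is absorbance at 570 nm of formazan taken up in DMSO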
Procedure: LLCMK2 cells were cultured in 96-well plates at a concentration of 5 x 10^4 cells/ml. After 48 h, the plates were washed twice with PBS and 200 μL RPMI medium was added with serial dilutions of the compounds and benznidazole (1.95 μM to 250 μM) in triplicate. After 72 h at 37 °C, the cytotoxic activity of the compounds was determined by the classical MTT [3- (4,5-dimethylthiazol-2-yl) -2,5-diphenyltetrazolium bromide] method. Briefly, 50 μL MTT dissolved in PBS (2.0 mg mL^-1) was added to each well and the plates were incubated for 4 h at 37 °C. The formed formazan crystals were dissolved with DMSO (50 μL/well) and the absorbance of the samples was measured by spectrophotometer at 570 nm after 30 min.

[8] = target: cathepsin B (CatB) (Homo sapiens, UniProt P07858); test: Cathepsin B enzyme inhibition; assay type: biochemical; details: for Ki: SD lower than 15%, read-out: pKi CatB (converted); for remaining activity at 10 µM: replicates = 2, n.i. = no inhibition observed at 10 μM
[9] = read-out: pEC50, T. cruzi amastigote form (converted), S1 Table
[10] = S1 Table, maximum concentration used 250 µM, read-out: CC50
[11] = SD lower than 15%, read-out: pKi LmCPB (converted)
[12] = SD lower than 15%, read-out: pKi Cz (converted)
[13] = 72 h, amastigote, Tulahuen strain, 72 h, Table 2, read-out: EC50 trypanocidal activity
[14] = LLCMK2, 72 h, MTT, Table 2, read-out: CC50 cytotoxicity
[15] = 10 μM, replicates = 2, n.i. = no inhibition observed at 10 μM
[16] = S1 Table, maximum concentration used 250 µM, read-out: EC50 T. cruzi
[17] = T. cruzi amastigote form, S1 Table, read-out: pEC50 (converted)

Chain of cathepsin S (CatS) (P25774 115-331): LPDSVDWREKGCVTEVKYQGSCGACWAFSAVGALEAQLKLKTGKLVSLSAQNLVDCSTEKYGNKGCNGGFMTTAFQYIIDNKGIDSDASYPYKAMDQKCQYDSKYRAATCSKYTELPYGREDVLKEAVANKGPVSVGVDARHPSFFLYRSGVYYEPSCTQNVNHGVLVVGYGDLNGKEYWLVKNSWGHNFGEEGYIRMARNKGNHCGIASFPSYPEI
Chain of recombinant cruzain (Cz) (P25779 123-337): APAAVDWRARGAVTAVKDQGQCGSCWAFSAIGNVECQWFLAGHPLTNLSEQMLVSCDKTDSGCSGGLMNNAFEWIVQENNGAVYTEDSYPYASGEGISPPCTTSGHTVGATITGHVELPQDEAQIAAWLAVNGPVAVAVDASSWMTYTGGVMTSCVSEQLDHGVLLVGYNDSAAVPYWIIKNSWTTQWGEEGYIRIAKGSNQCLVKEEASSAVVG
Chain of cathepsin L (CatL) (P07711 114-333): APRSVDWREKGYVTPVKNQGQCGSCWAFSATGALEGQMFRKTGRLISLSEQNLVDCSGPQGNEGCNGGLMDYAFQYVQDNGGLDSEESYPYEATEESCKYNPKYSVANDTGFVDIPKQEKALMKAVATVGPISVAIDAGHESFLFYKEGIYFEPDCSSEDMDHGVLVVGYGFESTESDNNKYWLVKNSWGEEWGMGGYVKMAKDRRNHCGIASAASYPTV
Chain of Leishmania mexicana CPB (LmCPB) (P36400 126-443): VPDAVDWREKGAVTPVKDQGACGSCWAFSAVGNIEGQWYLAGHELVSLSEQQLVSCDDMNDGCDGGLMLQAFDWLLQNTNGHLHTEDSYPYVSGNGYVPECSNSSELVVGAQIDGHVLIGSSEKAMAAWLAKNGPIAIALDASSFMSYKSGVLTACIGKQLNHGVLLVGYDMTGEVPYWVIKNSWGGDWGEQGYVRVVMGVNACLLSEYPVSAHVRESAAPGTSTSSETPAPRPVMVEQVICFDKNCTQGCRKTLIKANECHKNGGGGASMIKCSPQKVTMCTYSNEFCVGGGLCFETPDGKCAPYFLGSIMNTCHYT

Row | SMILES | Ki [2] [µM] | Ki [3] [µM] | melting point [°C] | CC50 at 72 h [7, 10] [µM] | Ki [8] [µM] | Ki [4, 11] [µM] | Ki [5, 12] [µM] | EC50 [6, 13] [µM] | SI (selective index) ([6]; Table 2) | CC50 at 72 h [7, 14] [µM] | Ki [1] [µM] | EC50 [6, 16] [µM] | EC50 [6, 17] [µM] | remaining activity at 10 µM [8] [%] | also measured
1 | N#CC1(NC(=O)[C@H](Cc2ccccc2)NC(=O)c2ccnc3cc(Cl)ccc23)CC1 [Compound 13, (S)-7-Chloro-N-(1-((1-cyanocyclopropyl)amino)-1-oxo-3-phenylpropan-2-yl)quinoline-4-carboxamide] | 0.0631 | 0.2 | 260 to 262 | > 100 | 12.6 | – | – | – | – | – | – | – | – | – | remaining activity at 10 µM [1]: 81%; Ki [4]: 0.126 µM; Ki [5]: 0.2 µM; EC50 ([6]; read-out: EC50 T. cruzi, S1 Table, maximum concentration used 250 µM): > 100 µM; EC50 [6, 9]: > 100 µM
2 | C[C@@H](OCc1ccccc1)[C@H](NC(=O)c1cc(C(C)(C)C)nn1C)C(=O)NC1(C#N)CC1 [Compound 12, N-((2S,3R)-3-(Benzyloxy)-1-((1-cyanocyclopropyl)amino)-1-oxobutan-2-yl)-3-(tert-butyl)-1-methyl-1H-pyrazole-5-carboxamide] | 1.26 | 1.26 | 100 to 101 | – | 39.8 | 3.16 | 7.94 | 32.7 ± 3.86 | > 3.1 | > 100 | – | – | – | – | remaining activity at 10 µM [1]: 96%; EC50 [6, 9]: 31.6 µM
3 | CC(C)C[C@H](NC(=O)c1cc(C(C)(C)C)nn1C)C(=O)N[C@@H](C#N)[C@H](C)O [Compound 68, 3-(tert-Butyl)-N-((S)-1-(((1S,2S)-1-cyano-2-hydroxypropyl)amino)-4-methyl-1-oxopentan-2-yl)-1-methyl-1H-pyrazole-5-carboxamide] | – | – | 111 to 113 | – | – | – | 3.98 | 16 ± 4 | > 6.3 | > 100 | 7.94 | 16.3 | 15.8 | 93 | remaining activity at 10 µM [2, 15]: 88%; remaining activity at 10 µM [3, 15]: 83%; remaining activity at 10 µM ([4]; 10 μM, replicates = 2): 54%
4 | Cn1nc(C(C)(C)C)cc1C(=O)N[C@@H](Cc1ccccc1)C(=O)N[C@@H](C#N)Cc1ccccc1 [Compound 51, 3-(tert-Butyl)-N-((S)-1-(((R)-1-cyano-2-phenylethyl)amino)-1-oxo-3-phenylpropan-2-yl)-1-methyl-1H-pyrazole-5-carboxamide] | 0.126 | 1.26 | 98 to 99 | 42.3 | – | 0.794 | 0.501 | 8.6 ± 0.53 | 4.9 | 42.3 ± 3.94 | 2.51 | – | 7.94 | 94 | –
5 | CC(C)C[C@H](NC(=O)c1cc(C(C)(C)C)nn1C)C(=O)N[C@H](C#N)[C@@H](C)OCc1ccccc1 [Compound 58, N-((S)-1-(((1R,2R)-2-(Benzyloxy)-1-cyanopropyl)amino)-4-methyl-1-oxopentan-2-yl)-3-(tert-butyl)-1-methyl-1H-pyrazole-5-carboxamide] | 0.0631 | 0.0501 | 96 to 97 | > 100 | 7.94 | 0.02 | 0.0126 | – | – | – | 0.0158 | > 100 | > 100 | – | difference in pKi, LmCPB ([4]; relative to compound 11): 0.4; difference in pKi, Cz [5]: 0.6; EC50 ([6]; amastigote forms of T. cruzi (Tuhaluen strain), Figs 12-14, unit inferred, read-out: EC50): > 100 µM
6 | Cn1nc(C(C)(C)C)cc1C(=O)N[C@@H](Cc1ccccc1)C(=O)N[C@H](C#N)Cc1cccc(Cl)c1 [Compound 54, 3-(tert-Butyl)-N-((S)-1-(((S)-2-(3-chlorophenyl)-1-cyanoethyl)amino)-1-oxo-3-phenylpropan-2-yl)-1-methyl-1H-pyrazole-5-carboxamide] | 0.00501 | 0.0794 | 132 to 133 | – | 12.6 | – | – | 15.8 ± 1.43 | 2.83 | 44.7 ± 5.24 | 0.501 | – | 15.8 | – | Ki [4]: 0.0316 µM; Ki [5]: 0.0316 µM
7 | CC(C)C[C@H](NC(=O)c1cc(C(C)(C)C)nn1C)C(=O)N[C@H](C#N)[C@@H](C)O [Compound 67, 3-(tert-Butyl)-N-((S)-1-(((1R,2R)-1-cyano-2-hydroxypropyl)amino)-4-methyl-1-oxopentan-2-yl)-1-methyl-1H-pyrazole-5-carboxamide] | 0.1 | 10 | 118 to 119 | – | – | 0.2 | 0.0794 | 24.4 ± 2.36 | > 4.1 | > 100 | 0.0158 | – | 25.1 | 92 | –
8 | Cn1nc(C(C)(C)C)cc1C(=O)N[C@@H](Cc1ccccc1)C(=O)N[C@H](C#N)Cc1ccccc1 [Compound 50, 3-(tert-Butyl)-N-((S)-1-(((S)-1-cyano-2-phenylethyl)amino)-1-oxo-3-phenylpropan-2-yl)-1-methyl-1H-pyrazole-5-carboxamide] | 0.00316 | 0.0501 | 89 to 90 | – | 31.6 | 0.0158 | 0.02 | 63.3 ± 5.74 | 1.31 | 83.1 ± 6.85 | 0.501 | 63.5 | 63.1 | – | difference in pKi, LmCPB ([4]; relative to compound 9): 0.7; difference in pKi, Cz [5]: 0.4; difference in pKi, CatB ([8]; relative to compound 9, sign not given, direction by cell colour or wording): 0.3

From publication PMC7067379, “Mapping the S1 and S1’ subsites of cysteine proteases with new dipeptidyl nitrile inhibitors as trypanocidal agents” (PLoS Neglected Tropical Diseases, 2020)
